Assay results taken from patent US8440710B2, “HSL inhibitors useful in the treatment of diabetes” (Hoffmann-La Roche Inc., priority 2009, dated 2013).

Molecular target: T1, human HSL (Homo sapiens, UniProt Q05469)
T1 construct: generate a full length human HSL ORF with a 3′-His6 tag; made in house; host or cells: High 5 insect cells (baculovirus, pFast-BAC)
T1 sequence (Q05469 1-1076): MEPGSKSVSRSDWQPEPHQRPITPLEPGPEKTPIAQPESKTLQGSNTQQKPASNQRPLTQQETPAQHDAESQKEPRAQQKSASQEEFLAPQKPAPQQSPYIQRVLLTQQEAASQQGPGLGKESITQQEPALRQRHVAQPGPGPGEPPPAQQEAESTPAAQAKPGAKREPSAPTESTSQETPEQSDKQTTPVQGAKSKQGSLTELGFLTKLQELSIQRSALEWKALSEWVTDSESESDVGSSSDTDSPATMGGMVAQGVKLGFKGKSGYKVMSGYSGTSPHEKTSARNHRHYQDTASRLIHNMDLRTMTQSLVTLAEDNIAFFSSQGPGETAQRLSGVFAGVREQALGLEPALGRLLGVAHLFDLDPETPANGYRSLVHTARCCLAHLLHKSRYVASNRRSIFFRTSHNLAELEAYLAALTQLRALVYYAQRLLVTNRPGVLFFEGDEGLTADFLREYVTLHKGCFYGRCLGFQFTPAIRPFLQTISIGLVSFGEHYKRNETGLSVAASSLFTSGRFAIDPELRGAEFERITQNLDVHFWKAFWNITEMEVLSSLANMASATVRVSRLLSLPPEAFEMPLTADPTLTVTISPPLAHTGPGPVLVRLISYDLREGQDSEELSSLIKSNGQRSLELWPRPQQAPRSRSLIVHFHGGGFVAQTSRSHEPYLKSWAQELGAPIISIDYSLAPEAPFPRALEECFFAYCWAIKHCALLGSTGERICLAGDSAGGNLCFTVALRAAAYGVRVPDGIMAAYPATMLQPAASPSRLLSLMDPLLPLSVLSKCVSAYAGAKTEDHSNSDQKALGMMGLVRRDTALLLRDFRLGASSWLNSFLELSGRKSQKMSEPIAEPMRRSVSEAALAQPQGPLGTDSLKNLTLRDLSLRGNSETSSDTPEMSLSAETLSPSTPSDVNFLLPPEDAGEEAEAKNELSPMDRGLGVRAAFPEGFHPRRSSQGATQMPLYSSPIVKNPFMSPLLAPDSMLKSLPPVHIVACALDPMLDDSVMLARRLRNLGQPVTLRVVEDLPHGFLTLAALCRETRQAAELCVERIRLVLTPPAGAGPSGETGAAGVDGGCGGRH
Experiment: Human Hormone-Sensitive Lipase (HSL) enzyme inhibition assay (colorimetric, DMPT substrate)
Format: biochemical
Conditions: human full length HSL-His6, 2,3-dimercapto-1-propanol tributyrate substrate, 37° C. 20 minutes, absorbance at 405 nm; read-out: HSL hum IC50
Outline: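 Full-length human HSL with C-terminal His6, expressed in baculovirus-infected High 5 cells and Ni-NTA purified, was added (15 ug/ml stock) to 1.5 mM DMPT in 100 mM MOPS pH 7.2, 0.2 mg/ml fatty acid-free BSA containing compound. After 20 min at 37 °C, DTNB with SDS/Triton X-100 was added; A405 read after 15 min at RT.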

IC50 | Compound
50 nM | COC[C@]1(O)CC[C@]2(CCN(c3ccc(OC(C)C)cc3)C2=O)CC1 [Example 210, (5α,8α)-8-hydroxy-2-(4-isopropoxyphenyl)-8-(methoxymethyl)-2-aza-spiro[4.5]decan-1-one]
10 nM | CC(C)Oc1ccc(N2CC[C@]3(CC[C@@](O)(c4ccsc4)CC3)C2=O)cc1 [Example 211, (5α,8α)-8-hydroxy-2-(4-isopropoxyphenyl)-8-(thiophen-3-yl)-2-aza-spiro[4.5]decan-1-one]
10 nM | CC(C)Oc1ccc(N2CC[C@]3(CC[C@@](O)(c4c(Br)nnn4C)CC3)C2=O)cc1 [Example 212, (5α,8α)-8-(5-Bromo-3-methyl-3H-[1,2,3]triazol-4-yl)-8-hydroxy-2-(4-isopropoxy-phenyl)-2-aza-spiro[4.5]decan-1-one]
390 nM | CC(C)Oc1ccc(N2CC[C@]3(CC[C@@](O)(c4cnnn4C)CC3)C2=O)cc1 [Example 213]
50 nM | Cn1nnc(Br)c1[C@]1(O)CC[C@]2(CCN(c3ccc(C(F)(F)F)cc3)C2=O)CC1 [Example 214, (5α,8α)-8-(5-Bromo-3-methyl-3H-[1,2,3]triazol-4-yl)-8-hydroxy-2-(4-trifluoromethyl-phenyl)-2-aza-spiro[4.5]decan-1-one]
590 nM | Cn1nncc1[C@]1(O)CC[C@]2(CCN(c3ccc(C(F)(F)F)cc3)C2=O)CC1 [Example 215, (5α,8α)-8-Hydroxy-8-(3-methyl-3H-[1,2,3]triazol-4-yl)-2-(4-trifluoromethyl-phenyl)-2-aza-spiro[4.5]decan-1-one]
10 nM | CC(C)c1ccc(N2CC[C@]3(CC[C@@](O)(COCC(F)(F)F)CC3)C2=O)cc1 [Example 216, (5α,8α)-8-hydroxy-2-(4-isopropylphenyl)-8-((2,2,2-trifluoroethoxy)methyl)-2-aza-spiro[4.5]decan-1-one]
50 nM | CC(C)Oc1ccc(N2CC[C@]3(CC[C@@](O)(c4ccn(C)n4)CC3)C2=O)cc1 [Example 217, (5α,8α)-8-hydroxy-2-(4-isopropoxyphenyl)-8-(1-methyl-1H-pyrazol-3-yl)-2-aza-spiro[4.5]decan-1-one]
40 nM | COC[C@]1(O)CC[C@]2(CCN(c3ccc(C(C)C)cc3)C2=O)CC1 [Example 218, (5α,8α)-8-hydroxy-2-(4-isopropylphenyl)-8-(methoxymethyl)-2-aza-spiro[4.5]decan-1-one]
11 nM | O=C1N(c2ccc(C(F)(F)F)cc2)CC[C@]12CC[C@@](O)(COCC(F)(F)F)CC2 [Example 219, (5α,8α)-8-hydroxy-8-((2,2,2-trifluoroethoxy)methyl)-2-(4-(trifluoromethyl)phenyl)-2-aza-spiro[4.5]decan-1-one]
20 nM | Cc1cc(C[C@]2(O)CC[C@]3(CCN(c4ccc(OC(C)C)cc4)C3=O)CC2)no1 [Example 220]
1160 nM | Cc1cc(C[C@]2(O)CC[C@@]3(CCN(c4ccc(OC(C)C)cc4)C3=O)CC2)no1 [Example 221, (5α,8β)-8-hydroxy-2-(4-isopropoxyphenyl)-8-((5-methylisoxazol-3-yl)methyl)-2-aza-spiro[4.5]decan-1-one]
103 nM | C=Cc1nnn(C)c1[C@]1(O)CC[C@]2(CCN(c3ccc(OC(C)C)cc3)C2=O)CC1 [Example 222, (5α,8α)-8-hydroxy-2-(4-isopropoxyphenyl)-8-(1-methyl-4-vinyl-1H-1,2,3-triazol-5-yl)-2-aza-spiro[4.5]decan-1-one]
50 nM | COC[C@]1(O)CC[C@]2(CCN(c3ccc(C4CC4)cc3)C2=O)CC1 [Example 223, (5α,8α)-2-(4-Cyclopropyl-phenyl)-8-hydroxy-8-methoxymethyl-2-aza-spiro[4.5]decan-1-one]
150 nM | CCc1ccc(N2CC[C@]3(CC[C@@](O)(COC)CC3)C2=O)cc1 [Example 224, (5α,8α)-2-(4-Ethyl-phenyl)-8-hydroxy-8-methoxymethyl-2-aza-spiro[4.5]decan-1-one]
60 nM | CCOC[C@]1(O)CC[C@]2(CCN(c3ccc(CC)cc3)C2=O)CC1 [Example 225, (5α,8α)-8-Ethoxymethyl-2-(4-ethyl-phenyl)-8-hydroxy-2-aza-spiro[4.5]decan-1-one]
